Results from patent US20020072606A1, “Chemokine receptor antagonists” (Warner-Lambert Company, priority 1999, published 2002).
Structures can show the parent of a compound that is named as a salt.

SMILES | melting point
C[C@@]12CC3CC(N)/C(=C/c4ccccc4)CC3CN1CCc1c2[nH]c2ccccc12 (stereo in doubt) (as salt: trifluoroacetic acid salt) [Example 28, 3-Benzylidene-13b-methyl-1,2,3,4,4a,5,7,8,13,13b,14,14a-dodecahydro-indolo[2′,3′: 3,4]pyrido[1,2-b]isoquinolin-2-ylamine] | 203 to 210 °C
CCCC[C@@]12CC3C[C@H](O)CCC3CN1CCc1c2[nH]c2ccccc12 (stereo partly drawn) [Example 1, [2R-(2α,4aα,13β,14aβ)]-13b-Butyl-1,2,3,4,4a,5,7,8,13,13b,14,14a-dodecahydro-indolo[2′,3′:3,4]pyrido[1,2-b]isoquinolin-2-ol] | 235 °C (dec.)
C=CC[C@@]12CC3C[C@H](O)CCC3CN1CCc1c2[nH]c2ccccc12 (stereo partly drawn) [Example 2, [2R-(2α,4aα, 13β,14aβ)]-13b-Allyl-1,2,3,4,4a,5,7,8,13,13b,14,14a-dodecahydro-indolo[2′,3′:3,4]pyrido[1,2-b]isoquinolin-2-ol] | 228 to 230 °C
CCC[C@@]12CC3C[C@H](O)CCC3CN1CCc1c2[nH]c2ccccc12 (stereo partly drawn) [Example 3, [2R-(2α,4aα,13β,14aβ)]-13b-Propyl-1,2,3,4,4a,5,7,8,13,13b,14,14a-dodecahydro-indolo[2′,3′:3,4]pyrido[1,2-b]isoquinolin-2-ol] | 195 °C (dec.)
C=CC[C@@]12CC3CC(=O)CCC3CN1CCc1c2[nH]c2ccccc12 (stereo partly drawn) [Example 5, [2R-(2α,4aα,13β,14aβ)]-13b-Allyl-3,4,4a,5,7,8,13,13b,14,14a-decahydro-1H-indolo[2′,3′:3,4]pyrido[1,2-b]isoquinolin-2-one] | 220 to 223 °C
CCC[C@@]12CC3CC(=O)CCC3CN1CCc1c2[nH]c2ccccc12 (stereo partly drawn) [Example 6, [2R-(2α,4aα, 13β, 14aβ)]-13b-Propyl-3,4,4a,5,7,8,13,13b,14,14a-decahydro-1H-indolo[2′,3′;3,4]pyrido[1,2-b]isoquinolin-2-one] | 255 °C (dec.)
C=CC[C@@]12CC3C[C@H](O)/C(=C/c4ccccc4)CC3CN1CCc1c2[nH]c2ccccc12 (stereo partly drawn) [Example 10, [2S-(2α,4aα,13β,14aα)]-13b-Allyl-3-benzylidene-1,2,3,4,4a,5,7,8,13,13b,14,14a-dodecahydro-indolo[2′,3′:3,4]pyrido[1,2-b]isoquinolin-2-ol] | 211 to 213 °C
CCC[C@@]12CC3C[C@H](O)/C(=C/c4ccccc4)CC3CN1CCc1c2[nH]c2ccccc12 (stereo partly drawn) [Example 11, [2S-(2α,4aα,13β, 14aβ)]-3-Benzylidine-13b-propyl-1,2,3,4,4a,5,7,8,13,13b,14,14a-dodecahydro-indolo[2′,3′:3,4]pyrido[1,2-b]-isoquinolin-2-ol] | 224 to 226 °C
CCCC[C@@]12CC3C[C@H](O)/C(=C/c4ccccc4)CC3CN1CCc1c2[nH]c2ccccc12 (stereo partly drawn) [Example 12, [2S-(2α,4aα,13β,14aβ)]-3-Benzylidine-13b-butyl-1,2,3,4,4a,5,7,8,13,13b,14,14a-dodecahydro-1-indolo[2′,3′:3,4]pyrido[1,2-b]-isoquinolin-2-ol] | 222 to 225 °C
COc1ccc(/C=C2\CC3CN4CCc5c([nH]c6ccccc56)[C@]4(C)CC3CC2=O)cc1OC (stereo partly drawn) [Example 18, [4aR-[(E),4aα, 13bβ, 14aβ]]-3-(3,4-Dimethoxy-benzylidene)-13b-methyl-3,4,4a,5,7,8,13,13b,14,14a-decahydro-1H-indolo[2′,3′:3,4]pyrido[1,2-b]-isoquinolin-2-one] | 120 to 125 °C
COc1cccc(/C=C2\CC3CN4CCc5c([nH]c6ccccc56)[C@]4(C)CC3CC2=O)c1 (stereo partly drawn) [Example 19, [4aR-[(E),4aα, 13bβ,14aβ]]3-(3-Methoxy-benzylidene)-13b-methyl-3,4,4a, 5,7,8,13,13b,14,14a-decahydro-1H-indolo[2′,3′:3,4]pyrido[1,2-b]-isoquinolin-2-one] | 125 to 130 °C
COc1cc(/C=C2\CC3CN4CCc5c([nH]c6ccccc56)[C@]4(C)CC3CC2=O)cc(OC)c1 (stereo partly drawn) [Example 20, [4aR-[(E),4aα,13bβ, 14aβ]]-3-(3,5-Dimethoxy-benzylidene)-13b-methyl-3,4,4a,5,7,8,13,13b,14,14a-decahydro-1H-indolo[2′,3′:3,4]pyrido[1,2-b]-isoquinolin-2-one] | 110 to 120 °C
C[C@@]12CC3CC(=O)/C(=C/c4ccc(Cl)c(Cl)c4)CC3CN1CCc1c2[nH]c2ccccc12 (stereo partly drawn) [Example 21, [4aR-[(E),4aα,13bβ, 14aβ]]-3-(3,4-Dichloro-benzylidene)-13b-methyl-3,4,4a,5,7,8,13,13b,14,14a-decahydro-1H-indolo[2′,3′:3,4]pyrido[1,2-b]-isoquinolin-2-one] | 140 to 145 °C
COc1ccc(/C=C2\CC3CN4CCc5c([nH]c6ccccc56)[C@]4(C)CC3C[C@@H]2O)cc1OC (stereo partly drawn) [Example 22, [2R-[2α(E),4aα, 13bβ, 14aβ]]-3-(3,4-Dimethoxy-benzylidene)-13b-methyl-1,2,3,4,4a,5,7,8,13,13b,14,14a-dodecahydro-indolo[2′,3′:3,4]pyrido[1,2-b]-isoquinolin-2-ol] | 118 to 121 °C
COc1cccc(/C=C2\CC3CN4CCc5c([nH]c6ccccc56)[C@]4(C)CC3C[C@@H]2O)c1 (stereo partly drawn) [Example 23] | 140 to 142 °C
COc1cc(/C=C2\CC3CN4CCc5c([nH]c6ccccc56)[C@]4(C)CC3C[C@@H]2O)cc(OC)c1 (stereo partly drawn) [Example 24, [2R-[2α(E),4aα,13bβ,14aβ]]-3-(3,5-Dimethoxy-benzylidene)-13b-methyl-1,2,3,4,4a,5,7,8,13,13b,14,14a-dodecahydro-indolo[2′,3′:3,4]pyrido[1,2-b]-isoquinolin-2-ol] | 128 to 132 °C
C[C@@]12CC3C[C@H](O)/C(=C/c4ccc(Cl)c(Cl)c4)CC3CN1CCc1c2[nH]c2ccccc12 (stereo partly drawn) [Example 25, [2R-[2α(E),4aα,13bβ, 14aβ]]-3-(3,4-Dichloro-benzylidene)-13b-methyl-1,2,3,4,4a,5,7,8,13,13b,14,14a-dodecahydro-indolo[2′,3′:3,4]pyrido[1,2-b]-isoquinolin-2-ol] | 125 to 130 °C
C[C@@]12CC3CC(=NO)/C(=C/c4ccccc4)CC3CN1CCc1c2[nH]c2ccccc12 (stereo partly drawn) [Example 27, [4aR-[(E),4aα,13bβ,14aβ]]-3-Benzylidene-13b-methyl-3,4,4a,5,7,8,13,13b,14,14a-decahydro-1H-indolo[2′,3′:3,4]pyrido[1 ,2-b]-isoquinolin-2-one oxime] | 142 to 145 °C
